In patent US6613718B2, “Aryl ether derivatives and processes for their preparation and herbicidal and desiccant compositions containing them” (Ishihara Sangyo Kaisha, Ltd., priority 2001, dated 2003):

Tests used:
[1] = system: soybean (Glycine max L., var. Pella 86, SOY); test: Post-emerge greenhouse screening, crop safety (phytotoxicity rating); format: in vivo; conditions: 14 days after application
Summary of the method: (§1)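 Ratings taken 14 days after treatment on a 0–100 scale, 100 meaning complete plant death. Post-emerge: 2-3 leaf plants, 0.25% v/v surfactant added; pre-emerge: seeds sown a day ahead, soil surface-watered after spraying. Rates 15–1000 g ai/ha in acetone, 187 l/ha.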

[2] = system: upland rice (Oryza sp., var.Tebonnet, RICE); test: as above; format: in vivo; conditions: 14 days after application
Summary of the method: as §1

[3] = system: johnsongrass (Sorghum halepense, SORHA); test: Post-emerge greenhouse herbicide activity screening, phytotoxicity rating; format: in vivo; conditions: 14 days after application
Summary of the method: as §1

[4] = system: redroot pigweed (Amaranthus retroflexus, AMARE); test: as above; format: in vivo
Summary of the method: as §1

[5] = system: common ragweed (Ambrosia artemisiifolia L., AMBEL); test: as above; format: in vivo
Summary of the method: as §1

[6] = system: lambsquarters (Chenopodium album, CHEAL); test: as above; format: in vivo
Summary of the method: as §1

[7] = system: large crabgrass (Digitaria sanguinalis, DIGSA); test: as above; format: in vivo; conditions: 14 days after application
Summary of the method: as §1

[8] = system: green foxtail (Setaria viridis, SETVI); test: as above; format: in vivo
Summary of the method: as §1

[9] = system: ivyleaf morningglory (Ipomoea hederacea, IPOHE); test: as above; format: in vivo; conditions: 14 days after application
Summary of the method: as §1

[10] = system: velvetleaf (Abutilon theophrasti, ABUTH); test: as above; format: in vivo; conditions: 14 days after application
Summary of the method: as §1

[11] = system: barnyardgrass (Echinochloa crus-galli, ECHCG); test: as above; format: in vivo; conditions: 14 days after application
Summary of the method: as §1

[12] = system: sicklepod (Cassia obtusifolia, CASOB); test: as above; format: in vivo
Summary of the method: as §1

[13] = system: johnsongrass (Sorghum halepense, SORHA); test: Pre-emerge greenhouse herbicide activity screening, phytotoxicity rating; format: in vivo; conditions: 14 days after application
Summary of the method: as §1

[14] = system: redroot pigweed (Amaranthus retroflexus, AMARE); test: as above; format: in vivo; conditions: 14 days after application
Summary of the method: as §1

[15] = system: common ragweed (Ambrosia artemisiifolia L., AMBEL); test: as above; format: in vivo; conditions: 14 days after application
Summary of the method: as §1

[16] = system: lambsquarters (Chenopodium album, CHEAL); test: as above; format: in vivo; conditions: 14 days after application
Summary of the method: as §1

[17] = system: large crabgrass (Digitaria sanguinalis, DIGSA); test: as above; format: in vivo; conditions: 14 days after application
Summary of the method: as §1

[18] = system: green foxtail (Setaria viridis, SETVI); test: as above; format: in vivo; conditions: 14 days after application
Summary of the method: as §1

[19] = system: ivyleaf morningglory (Ipomoea hederacea, IPOHE); test: as above; format: in vivo; conditions: 14 days after application
Summary of the method: as §1

[20] = system: velvetleaf (Abutilon theophrasti, ABUTH); test: as above; format: in vivo; conditions: 14 days after application
Summary of the method: as §1

[21] = system: barnyardgrass (Echinochloa crus-galli, ECHCG); test: as above; format: in vivo; conditions: 14 days after application
Summary of the method: as §1

[22] = system: sicklepod (Cassia obtusifolia, CASOB); test: as above; format: in vivo; conditions: 14 days after application
Summary of the method: as §1

[23] = Post-emerge greenhouse screening, crop safety / corn selectivity (phytotoxicity rating); format: in vivo, Zea mays L.; conditions: Zea mays (field corn), in vivo
Summary of the method: as §1

[24] = system: field corn (Zea mays L., var. Dekalb 535, CORN); test: as above; format: in vivo; conditions: 14 days after application
Summary of the method: as §1

[25] = system: soybean (Glycine max L., var. Pella 86, SOY); test: Pre-emerge greenhouse screening, crop safety (phytotoxicity rating); format: in vivo; conditions: 14 days after application
Summary of the method: as §1

[26] = system: upland rice (Oryza sp., var.Tebonnet, RICE); test: as above; format: in vivo; conditions: 14 days after application
Summary of the method: as §1

[27] = system: field corn (Zea mays L., var. Dekalb 535, CORN); test: as above; format: in vivo; conditions: 14 days after application
Summary of the method: as §1

[28] = 125 g ai/ha, 14 days after application
[29] = 250 g ai/ha, 14 days after application

Cn1c(C(F)(F)F)cc(=O)n(-c2cc(Oc3ncccn3)c(Cl)cc2F)c1=S [Compound 1-1, 3-[4-Chloro-2-fluoro-5-(2-pyrimidinyloxy)phenyl]-2,3-dihydro-1-methyl-2-thioxo-6-(trifluoromethyl)-4(1H)-pyrimidinone]
80: SOY crop damage, phytotoxicity rating (0-100 scale) ([25]; 250 g ai/ha)
99: AMBEL phytotoxicity rating (0-100 scale) [5, 28] | SETVI phytotoxicity rating (0-100 scale) ([8]; 62.5 g ai/ha) | CASOB phytotoxicity rating (0-100 scale) ([12]; 62.5 g ai/ha) | CASOB phytotoxicity rating (0-100 scale) [12, 28] | CASOB phytotoxicity rating (0-100 scale) [12, 29]
8: corn phytotoxicity rating (0-100 scale) at 14 days ([23]; 31.3 g ai/ha) | corn phytotoxicity rating (0-100 scale) at 14 days ([23]; 62.5 g ai/ha)
95: SORHA phytotoxicity rating (0-100 scale) ([3]; 125 g ai/ha) | DIGSA phytotoxicity rating (0-100 scale) ([7]; 125 g ai/ha) | CASOB phytotoxicity rating (0-100 scale) ([12]; 31.3 g ai/ha)
10: CORN crop damage, phytotoxicity rating (0-100 scale) ([24]; 125 g ai/ha)
90: DIGSA phytotoxicity rating (0-100 scale) ([7]; 250 g ai/ha)
85: SETVI phytotoxicity rating (0-100 scale) ([8]; 31.3 g ai/ha)
15: CORN crop damage, phytotoxicity rating (0-100 scale) ([24]; 250 g ai/ha)
98: SORHA phytotoxicity rating (0-100 scale) ([3]; 250 g ai/ha) | AMBEL phytotoxicity rating (0-100 scale) ([5]; 62.5 g ai/ha)
75: AMBEL phytotoxicity rating (0-100 scale) ([5]; 31.3 g ai/ha)
100: SOY crop damage, phytotoxicity rating (0-100 scale) ([1]; 125 g ai/ha) | SOY crop damage, phytotoxicity rating (0-100 scale) ([1]; 250 g ai/ha) | RICE crop damage, phytotoxicity rating (0-100 scale) ([2]; 125 g ai/ha) | RICE crop damage, phytotoxicity rating (0-100 scale) ([2]; 250 g ai/ha) | AMARE phytotoxicity rating (0-100 scale) ([4]; 31.3 g ai/ha) | AMARE phytotoxicity rating (0-100 scale) ([4]; 62.5 g ai/ha) | AMARE phytotoxicity rating (0-100 scale) [4, 28] | AMARE phytotoxicity rating (0-100 scale) [4, 29] | AMBEL phytotoxicity rating (0-100 scale) [5, 29] | CHEAL phytotoxicity rating (0-100 scale) ([6]; 31.3 g ai/ha) | CHEAL phytotoxicity rating (0-100 scale) ([6]; 62.5 g ai/ha) | CHEAL phytotoxicity rating (0-100 scale) [6, 28] | CHEAL phytotoxicity rating (0-100 scale) [6, 29] | SETVI phytotoxicity rating (0-100 scale) [8, 28] | SETVI phytotoxicity rating (0-100 scale) [8, 29] | IPOHE phytotoxicity rating (0-100 scale) ([9]; 125 g ai/ha) | IPOHE phytotoxicity rating (0-100 scale) ([9]; 250 g ai/ha) | ABUTH phytotoxicity rating (0-100 scale) ([10]; 125 g ai/ha) | ABUTH phytotoxicity rating (0-100 scale) ([10]; 250 g ai/ha) | ECHCG phytotoxicity rating (0-100 scale) ([11]; 125 g ai/ha) | ECHCG phytotoxicity rating (0-100 scale) ([11]; 250 g ai/ha) | SORHA phytotoxicity rating (0-100 scale) ([13]; 125 g ai/ha) | SORHA phytotoxicity rating (0-100 scale) ([13]; 250 g ai/ha) | AMARE phytotoxicity rating (0-100 scale) ([14]; 125 g ai/ha) | AMARE phytotoxicity rating (0-100 scale) ([14]; 250 g ai/ha) | AMBEL phytotoxicity rating (0-100 scale) ([15]; 125 g ai/ha) | AMBEL phytotoxicity rating (0-100 scale) ([15]; 250 g ai/ha) | CHEAL phytotoxicity rating (0-100 scale) ([16]; 125 g ai/ha) | CHEAL phytotoxicity rating (0-100 scale) ([16]; 250 g ai/ha) | DIGSA phytotoxicity rating (0-100 scale) ([17]; 125 g ai/ha) | DIGSA phytotoxicity rating (0-100 scale) ([17]; 250 g ai/ha) | SETVI phytotoxicity rating (0-100 scale) ([18]; 125 g ai/ha) | SETVI phytotoxicity rating (0-100 scale) ([18]; 250 g ai/ha) | IPOHE phytotoxicity rating (0-100 scale) ([19]; 125 g ai/ha) | IPOHE phytotoxicity rating (0-100 scale) ([19]; 250 g ai/ha) | ABUTH phytotoxicity rating (0-100 scale) ([20]; 125 g ai/ha) | ABUTH phytotoxicity rating (0-100 scale) ([20]; 250 g ai/ha) | ECHCG phytotoxicity rating (0-100 scale) ([21]; 125 g ai/ha) | ECHCG phytotoxicity rating (0-100 scale) ([21]; 250 g ai/ha) | CASOB phytotoxicity rating (0-100 scale) ([22]; 125 g ai/ha) | CASOB phytotoxicity rating (0-100 scale) ([22]; 250 g ai/ha) | SOY crop damage, phytotoxicity rating (0-100 scale) ([25]; 125 g ai/ha) | RICE crop damage, phytotoxicity rating (0-100 scale) ([26]; 125 g ai/ha) | RICE crop damage, phytotoxicity rating (0-100 scale) ([26]; 250 g ai/ha) | CORN crop damage, phytotoxicity rating (0-100 scale) ([27]; 125 g ai/ha) | CORN crop damage, phytotoxicity rating (0-100 scale) ([27]; 250 g ai/ha)

O=[N+]([O-])c1ccccc1Oc1cc(-c2nn3c(c2Cl)CCCC3)c(F)cc1Cl [Compound 6-19]
100: AMARE phytotoxicity rating (0-100 scale) [4, 29] | IPOHE phytotoxicity rating (0-100 scale) ([9]; 250 g ai/ha) | ABUTH phytotoxicity rating (0-100 scale) ([10]; 250 g ai/ha) | AMARE phytotoxicity rating (0-100 scale) ([14]; 250 g ai/ha) | CHEAL phytotoxicity rating (0-100 scale) ([16]; 250 g ai/ha)
35: RICE crop damage, phytotoxicity rating (0-100 scale) ([2]; 250 g ai/ha)
50: SORHA phytotoxicity rating (0-100 scale) ([3]; 250 g ai/ha) | AMBEL phytotoxicity rating (0-100 scale) [5, 29] | DIGSA phytotoxicity rating (0-100 scale) ([7]; 250 g ai/ha) | AMBEL phytotoxicity rating (0-100 scale) ([15]; 250 g ai/ha) | ECHCG phytotoxicity rating (0-100 scale) ([21]; 250 g ai/ha) | SOY crop damage, phytotoxicity rating (0-100 scale) ([25]; 250 g ai/ha)
98: CHEAL phytotoxicity rating (0-100 scale) [6, 29]
65: SETVI phytotoxicity rating (0-100 scale) [8, 29] | SORHA phytotoxicity rating (0-100 scale) ([13]; 250 g ai/ha) | ABUTH phytotoxicity rating (0-100 scale) ([20]; 250 g ai/ha)
90: DIGSA phytotoxicity rating (0-100 scale) ([17]; 250 g ai/ha)
75: CASOB phytotoxicity rating (0-100 scale) [12, 29] | CASOB phytotoxicity rating (0-100 scale) ([22]; 250 g ai/ha)
3: CORN crop damage, phytotoxicity rating (0-100 scale) ([24]; 250 g ai/ha)
95: SETVI phytotoxicity rating (0-100 scale) ([18]; 250 g ai/ha)
60: ECHCG phytotoxicity rating (0-100 scale) ([11]; 250 g ai/ha)
40: SOY crop damage, phytotoxicity rating (0-100 scale) ([1]; 250 g ai/ha)
0: IPOHE phytotoxicity rating (0-100 scale) ([19]; 250 g ai/ha) | RICE crop damage, phytotoxicity rating (0-100 scale) ([26]; 250 g ai/ha) | CORN crop damage, phytotoxicity rating (0-100 scale) ([27]; 250 g ai/ha)
